Reference: patent publication US7019001B2, “Substituted benzothiazole amide derivatives” (Hoffman-La Roche Inc., priority 2001, dated 2006)

Biological target: T1, human adenosine A2A receptor (Homo sapiens, UniProt P29274)
T1 construct: expressed in transfected cells; host or cells: CHO cells, semliki forest virus expression system; washed membrane pellet used
Assay: [3H]-SCH-58261 binding assay, human adenosine A2A receptor (CHO cell membranes, SPA)
Settings: not given
Experimental: Human Adenosine A2A Receptor
The human adenosine A2A receptor was recombinantly expressed in chinese hamster ovary (CHO) cells using the semliki forest virus expression system. Cells were harvested, washed twice by centrifugation, homogenised and again washed by centrifugation. The final washed membrane pellet was suspended in a Tris (50 mM) buffer containing 120 mM NaCl, 5 mM KCl, 2 mM CaCl2 and 10 mM MgCl2 (pH 7.4) (buffer A). The [^3H]-SCH-58261 (Dionisotti et al., 1997, Br J Pharmacol 121, 353; 1 nM) binding assay was carried out in 96-well plates in the presence of 2.5 μg of membrane protein, 0.5 mg of Ysi-poly-1-lysine SPA beads and 0.1 U adenosine deaminase in a final volume of 200 μl of buffer A. Non-specific binding was defined using xanthine amine congener (XAC; 2 μM). Compounds were tested at 10 concentrations from 10 μM–0.3 nM. All assays were conducted in duplicate and repeated at least two times. Assay plates were incubated for 1 hour at room temperature before centrifugation and then bound ligand determined using a Packard Topcount scintillation counter. IC50 values, the concentration where 50% of the […] binding is displaced, were calculated using a non-linear curve fitting program and Ki values calculated using the Cheng-Prussoff equation.

T1 sequence (P29274 whole entry): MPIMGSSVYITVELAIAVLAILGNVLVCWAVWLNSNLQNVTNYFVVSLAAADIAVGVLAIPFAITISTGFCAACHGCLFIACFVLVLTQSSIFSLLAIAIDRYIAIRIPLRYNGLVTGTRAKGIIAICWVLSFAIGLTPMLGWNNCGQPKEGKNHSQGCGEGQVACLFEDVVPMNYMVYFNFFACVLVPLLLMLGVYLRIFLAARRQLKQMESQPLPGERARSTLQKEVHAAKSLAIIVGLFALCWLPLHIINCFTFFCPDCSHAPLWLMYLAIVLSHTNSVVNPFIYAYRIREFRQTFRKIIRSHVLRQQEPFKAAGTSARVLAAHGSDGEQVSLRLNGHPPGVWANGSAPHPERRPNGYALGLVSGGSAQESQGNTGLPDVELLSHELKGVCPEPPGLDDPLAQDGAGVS

SMILES | Ki
COc1ccc(N2CCOCC2)c2sc(NC(=O)N3[C@@H]4CC[C@H]3C[C@@H](O)C4)nc12 [Example 3, 3-endo-Hydroxy-8-aza-bicyclo[3.2.1]octane-8-carboxylic acid (4-methoxy-7-morpholin-4-yl-benzothiazol-2-yl)-amide] | 7.94 nM

Same assay, conditions: displacement of [3H]-SCH-58261 (1 nM); recombinant receptor in CHO membranes; Ki by Cheng-Prussoff equation

hA2 (pKi) | SMILES
7.9 | COc1ccc(N2CCOCC2)c2sc(NC(=O)N3CCCOCC3)nc12 [Example 28, Oxazepane-4-carboxylic acid (4-methoxy-7-morpholin-4-yl-benzothiazol-2-yl)-amide]

Same assay, conditions: displacement of [3H]-SCH-58261 (1 nM); recombinant receptor in CHO membranes; Ki by Cheng-Prussoff equation; read-out: hA2 (pKi) (converted)

SMILES | Ki
COc1ccc(N2CCOCC2)c2sc(NC(=O)N3CCC4(CCN(C)C4=O)CC3)nc12 [Example 4, 2-Methyl-1-oxo-2,8-diaza-spiro[4.5]decane-8-carboxylic acid (4-methoxy-7-morpholin-4-yl-benzothiazol-2-yl)-amide] | 6.31 nM
COc1ccc(N2CCOCC2)c2sc(NC(=O)N3CCC4(CCNC4=O)CC3)nc12 [Example 5, 1-Oxo-2,8-diaza-spiro[4.5]decane-8-carboxylic acid (4-methoxy-7-morpholin-4-yl-benzothiazol-2-yl)-amide] | 6.31 nM
COc1ccc(N2CCOCC2)c2sc(NC(=O)N3CCN(c4ccccc4)CC3)nc12 [Example 7, 4-Phenyl-piperazine-1-carboxylic acid (4-methoxy-7-morpholin-4-yl-benzothiazol-2-yl)-amide] | 7.94 nM
COc1ccc(N2CCOCC2)c2sc(NC(=O)N3CCC(CO)(Cc4ccccc4)CC3)nc12 [Example 8, 4-Benzyl-4-hydroxymethyl-piperidine-1-carboxylic acid (4-methoxy-7-morpholin-4-yl-benzothiazol-2-yl)-amide] | 3.98 nM
COc1ccc(N2CCOCC2)c2sc(NC(=O)N3CCC4(CCCCC4)CC3)nc12 [Example 10, 3-Aza-spiro[5.5]undecane-3-carboxylic acid (4-methoxy-7-morpholin-4-yl-benzothiazol-2-yl)-amide] | 10 nM
COc1ccc(N2CCOCC2)c2sc(NC(=O)N3CCC4(CCCC4)CC3)nc12 [Example 11, 8-Aza-spiro[4.5]decane-8-carboxylic acid (4-methoxy-7-morpholin-4-yl-benzothiazol-2-yl)-amide] | 6.31 nM
COc1ccc(N2CCCCC2)c2sc(NC(=O)N3CCC4(CCCO4)CC3)nc12 [Example 19, 1-Oxa-8-aza-spiro[4.5]decane-8-carboxylic acid (4-methoxy-7-piperidin-1yl-benzothiazol-2-yl)-amide] | 3.98 nM
Cc1ccc(CC2(O)CCN(C(=O)Nc3nc4c(Cl)ccc(N5CCCCC5)c4s3)CC2)cc1 [Example 20, 4-Hydroxy-4-(4-methyl-benzyl)-piperidine-1-carboxylic acid (4-chloro-7-piperidin-1-yl-benzothiazol-2-yl)-amide] | 3.16 nM
O=C(Nc1nc2c(Cl)ccc(N3CCCCC3)c2s1)NC1CCCCC1 [Example 21, 1-(4-Chloro-7-piperidin-1-yl-benzothiazol-2-yl)-3-cyclohexyl-urea] | 2.51 nM
O=C(Nc1nc2c(Cl)ccc(N3CCCCC3)c2s1)N1CCC(Cc2ccccc2)CC1 [Example 22, 4-Benzyl-piperidine-1-carboxylic acid (4-chloro-7-piperidin-1-yl-benzothiazol-2-yl)-amide] | 15.8 nM

Next, values leading:

Ki | SMILES
3.16 nM | COc1ccc(N2CCOCC2)c2sc(NC(=O)N3C[C@@H]4C[C@H]3CO4)nc12 [Example 1, (1S,4S)-2-Oxa-5-aza-bicyclo[2.2.1]heptane-5-carboxylic acid (4-methoxy-7-morpholin-4-yl-benzothiazol-2-yl)-amide]
12.6 nM | COc1ccc(N2CCOCC2)c2sc(NC(=O)NC3CCOCC3)nc12 [Example 2, 1-(4-Methoxy-7-morpholin-4-yl-benzothiazol-2-yl)-3-(tetrahydro-pyran-4-yl)-urea]
12.6 nM | COc1ccc(N2CCOCC2)c2sc(NC(=O)N(C)C3CCCCC3)nc12 [Example 9, 1-Cyclohexyl-3-(4-methoxy-7-morpholin-4-yl-benzothiazol-2-yl)-1-methyl-urea]
2.51 nM | COc1ccc(N2CCOCC2)c2sc(NC(=O)N3CC4CCC3CC4)nc12 [Example 12, 2-Aza-bicyclo[2.2.2]octane-2-carboxylic acid (4-methoxy-7-morpholin-4-yl-benzothiazol-2-yl)-amide]
2.51 nM | COc1ccc(N2CCOCC2)c2sc(NC(=O)N3CCC4(CCCO4)CC3)nc12 [Example 13, 1-Oxa-8-aza-spiro[4.5]decane-8-carboxylic acid (4-methoxy-7-morpholin-4-yl-benzothiazol-2-yl)-amide]
7.94 nM | COc1ccc(N2CCOCC2)c2sc(NC(=O)N3CCC([C@@H](C)O)CC3)nc12 [Example 14, (R)-4-(1-Hydroxy-ethyl)-piperidine-1-carboxylic acid (4-methoxy-7-morpholin-4-yl-benzothiazol-2-yl)-amide]
7.94 nM | COc1ccc(N2CCOCC2)c2sc(NC(=O)N3CCC([C@H](C)O)CC3)nc12 [Example 15, (S)-4-(1-Hydroxy-ethyl)-piperidine-1-carboxylic acid (4-methoxy-7-morpholin-4-yl-benzothiazol-2-yl)-amide]
15.8 nM | COc1ccc(N2CCOCC2)c2sc(NC(=O)N3CCC(CNS(C)(=O)=O)CC3)nc12 [Example 16, 4-(Methanesulfonylamino-methyl)-piperidine-1-carboxylic acid (4-methoxy-7-morpholin-4-yl-benzothiazol-2-yl)-amide]
7.94 nM | COc1ccc(N2CCOCC2)c2sc(NC(=O)N(C)[C@H]3CC[C@@H](F)CC3)nc12 [Example 23, 1-(4cis-Fluoro-cyclohexyl)-3-(4-methoxy-7-morpholin-4-yl-benzothiazol-2-yl)-1-methyl-urea]
10 nM | COc1ccc(N2CCOCC2)c2sc(NC(=O)N(C)C3CCC(F)(F)CC3)nc12 [Example 24, 1-(4,4-Difluoro-cyclohexyl)-3-(4-methoxy-7-morpholin-4-yl-benzothiazol-2-yl)-1-methyl-urea]
20 nM | COc1ccc(N2CCOCC2)c2sc(NC(=O)N(C)[C@H]3CC[C@@H](OC)CC3)nc12 [Example 25, (cis)-1-(4-Methoxy-cyclohexyl)-3-(4-methoxy-7-morpholin-4-yl-benzothiazol-2-yl)-1-methyl-urea]
12.6 nM | COc1ccc(N2CCOCC2)c2sc(NC(=O)N(C)[C@H]3CC[C@H](O)CC3)nc12 [Example 27, (trans)-1-(4-Hydroxy-cyclohexyl)-3-(4-methoxy-7-morpholin-4-yl-benzothiazol-2-yl)-1-methyl-urea]
12.6 nM | COc1ccc(N2CCOCC2)c2sc(NC(=O)N(C)[C@H]3CC[C@@H](O)CC3)nc12 [Example 29, (cis)-1-(4-Hydroxy-cyclohexyl)-3-(4-methoxy-7-morpholin-4-yl-benzothiazol-2-yl)-1-methyl-urea]

Tested on: not given
Assay: not given
Settings: not given

melting point | SMILES
201 to 204 °C | COc1ccc(N2CCOCC2)c2sc(NC(=O)N(C)[C@H]3CC[C@@H](F)CC3)nc12 [Example 23, 1-(4cis-Fluoro-cyclohexyl)-3-(4-methoxy-7-morpholin-4-yl-benzothiazol-2-yl)-1-methyl-urea]
189 to 192 °C | COc1ccc(N2CCOCC2)c2sc(NC(=O)N(C)C3CCC(F)(F)CC3)nc12 [Example 24, 1-(4,4-Difluoro-cyclohexyl)-3-(4-methoxy-7-morpholin-4-yl-benzothiazol-2-yl)-1-methyl-urea]
198 to 200 °C | COc1ccc(N2CCOCC2)c2sc(NC(=O)N(C)[C@H]3CC[C@@H](OC)CC3)nc12 [Example 25, (cis)-1-(4-Methoxy-cyclohexyl)-3-(4-methoxy-7-morpholin-4-yl-benzothiazol-2-yl)-1-methyl-urea]
185 to 189 °C | COc1ccc(N2CCOCC2)c2sc(NC(=O)N3CC4CC[C@@](C)(C3)C4(C)C)nc12 [Example 26, (1R)-1,8,8-Trimethyl-3-aza-bicyclo[3.2.1]octane-3-carboxylic acid (4-methoxy-7-morpholin-4-yl-benzothiazol-2-yl)-amide]
158 to 162 °C | COc1ccc(N2CCOCC2)c2sc(NC(=O)N(C)[C@H]3CC[C@H](O)CC3)nc12 [Example 27, (trans)-1-(4-Hydroxy-cyclohexyl)-3-(4-methoxy-7-morpholin-4-yl-benzothiazol-2-yl)-1-methyl-urea]
169 to 171 °C | COc1ccc(N2CCOCC2)c2sc(NC(=O)N(C)[C@H]3CC[C@@H](O)CC3)nc12 [Example 29, (cis)-1-(4-Hydroxy-cyclohexyl)-3-(4-methoxy-7-morpholin-4-yl-benzothiazol-2-yl)-1-methyl-urea]
